Measured values taken from patent US6492356B1, “Acylguanidine derivatives as inhibitors of bone resorption and as vitronectin receptor antagonists” (Aventis Pharma Deutschland GmbH, priority 1997, dated 2002).

Biological target: T1, vitronectin receptor αvβ3 (Homo sapiens, UniProt P05106+P06756)
T1 construct: expressed in transfected cells
Assay: Inhibition of binding of 293 cells to human vitronectin (Vn/293 cell test)
Format: cell-based
Details: 293 cells cotransfected with αv and β3 subunits; plate coated with human vitronectin; 90 min at 37° C.
Text: Test for the measurement of the inhibition of binding of 293 cells to human vitronectin (Vn/293 cell test)
1. Purification of Human Vitronectin
Human vitronectin is isolated from human plasma and purified by affinity chromatography according to the method of Yatohyo et al., Cell Structure and Function, 1988, 23, 281-292.
293 cells, a human embryonic kidney cell line, which are cotransfected with DNA sequences for the αv and β3 subunits of the vitronectin receptor αvβ3 , are selected for a high rate of expression (>500,000 αvβ3 receptors/cell) according to the FACS method. The selected cells are cultured and sorted again by means of FACS in order to obtain a stable cell line (15 D) with expression rates >1,000,000 copies of αvβ3 per cell.
A Linbro 96-well tissue culture plate with a flat bottom is coated overnight at 4° C. with human vitronectin (0.01 mg/ml, 0.05 ml/well) in phosphate-buffered saline solution (PBS) and then blocked with 0.5% strength BSA (bovine serum albumin). Solutions of the test substances from 10^−10 mol/l to 2×10^−3 mol/l in glucose-containing DMEM medium are prepared and 0.05 ml/well of the solution are added to the plate in each case. The cells which express high levels of αvβ3 (for example 15 D) are suspended in glucose-containing DMEM medium and the suspension is adjusted to a content of 25,000 cells/0.05 ml of medium. 0.05 ml of this cell suspension is added to each well and the plate is incubated at 37° C. for 90 min. The plate is washed three times with warm PBS in order to remove unbound cells. The bound cells are lyzed in citrate buffer (25 mM, pH 5.0) which contains 0.25% Triton X-100. The hexoseamidase substrate p-nitrophenyl-N-acetyl-β-D-glucosaminide is then added and the plate is incubated at 37° C. for 90 min. The reaction is stopped with a glycine (50 mM)/EDTA (5 mM) buffer (pH 10.4) and the absorption of each well is measured at 405-650 nm. The data are analyzed according to standard processes.

T1 sequence (P06756 31-889 limits assumed): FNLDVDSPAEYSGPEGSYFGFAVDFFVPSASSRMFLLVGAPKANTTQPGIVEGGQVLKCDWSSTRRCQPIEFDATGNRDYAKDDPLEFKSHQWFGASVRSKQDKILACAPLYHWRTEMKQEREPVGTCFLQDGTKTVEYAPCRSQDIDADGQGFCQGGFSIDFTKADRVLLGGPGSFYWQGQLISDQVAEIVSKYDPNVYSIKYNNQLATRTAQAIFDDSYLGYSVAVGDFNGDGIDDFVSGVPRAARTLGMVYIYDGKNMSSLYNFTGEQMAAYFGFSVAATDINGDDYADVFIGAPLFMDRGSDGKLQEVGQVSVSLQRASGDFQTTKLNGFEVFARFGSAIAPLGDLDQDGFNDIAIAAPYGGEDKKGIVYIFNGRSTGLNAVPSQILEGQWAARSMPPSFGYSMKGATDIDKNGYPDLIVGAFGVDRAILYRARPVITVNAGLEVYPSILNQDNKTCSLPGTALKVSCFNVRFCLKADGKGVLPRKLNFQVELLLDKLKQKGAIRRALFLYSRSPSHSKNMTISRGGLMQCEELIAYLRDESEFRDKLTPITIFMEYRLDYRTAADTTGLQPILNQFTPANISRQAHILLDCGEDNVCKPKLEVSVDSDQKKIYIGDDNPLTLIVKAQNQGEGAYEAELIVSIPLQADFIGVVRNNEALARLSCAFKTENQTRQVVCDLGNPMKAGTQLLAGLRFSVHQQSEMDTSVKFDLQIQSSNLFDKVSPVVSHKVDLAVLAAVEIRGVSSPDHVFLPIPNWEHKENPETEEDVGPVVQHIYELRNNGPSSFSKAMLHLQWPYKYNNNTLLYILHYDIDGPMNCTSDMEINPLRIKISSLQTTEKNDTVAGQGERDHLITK
T1 sequence (P06756 891-1048 limits assumed): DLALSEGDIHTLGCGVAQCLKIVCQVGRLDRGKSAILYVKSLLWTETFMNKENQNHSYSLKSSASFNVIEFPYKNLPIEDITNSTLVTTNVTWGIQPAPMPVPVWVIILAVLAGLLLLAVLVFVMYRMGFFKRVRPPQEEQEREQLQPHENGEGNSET
T1 sequence (P05106 27-788): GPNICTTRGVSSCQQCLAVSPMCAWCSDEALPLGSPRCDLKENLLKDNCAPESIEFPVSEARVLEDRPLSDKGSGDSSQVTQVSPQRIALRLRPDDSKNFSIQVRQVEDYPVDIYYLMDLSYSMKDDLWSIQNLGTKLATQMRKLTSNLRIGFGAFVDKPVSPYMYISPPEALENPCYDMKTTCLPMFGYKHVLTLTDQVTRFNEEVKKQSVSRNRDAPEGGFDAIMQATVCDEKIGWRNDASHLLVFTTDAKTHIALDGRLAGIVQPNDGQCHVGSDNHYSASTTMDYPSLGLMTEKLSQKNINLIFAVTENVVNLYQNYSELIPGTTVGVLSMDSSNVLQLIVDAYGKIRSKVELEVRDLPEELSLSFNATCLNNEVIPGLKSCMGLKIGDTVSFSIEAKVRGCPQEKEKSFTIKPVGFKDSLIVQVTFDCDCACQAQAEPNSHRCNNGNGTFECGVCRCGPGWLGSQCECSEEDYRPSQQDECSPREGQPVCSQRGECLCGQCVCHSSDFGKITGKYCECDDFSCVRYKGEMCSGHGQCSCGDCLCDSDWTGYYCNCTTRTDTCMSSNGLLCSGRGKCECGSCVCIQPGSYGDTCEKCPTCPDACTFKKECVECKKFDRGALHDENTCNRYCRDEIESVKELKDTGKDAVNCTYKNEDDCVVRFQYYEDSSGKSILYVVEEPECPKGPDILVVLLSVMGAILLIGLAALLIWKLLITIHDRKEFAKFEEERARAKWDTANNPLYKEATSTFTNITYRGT

First: O=C(COc1ccc(C(=O)NC[C@H](NC(=O)OCc2ccccc2)C(=O)O)cc1)NC1=NCCCN1 [Example 3, (2S )-2-Benzyloxycarbonylamino-3-(4-((1,4,5,6-tetrahydropyrimidin-2-ylcarbamoyl)methyloxy)benzoylamino)propionic Acid]
Second: O=C(CCc1ccc(C(=O)NC[C@H](NC(=O)OCc2ccccc2)C(=O)O)cc1)NC1=NCCCN1 [Example 2, (2S)-2-Benzyloxycarbonylamino-3-(4-(2-(1,4,5,6-tetrahydropyrimidin-2-ylcarbamoyl)ethyl)benzoylamino)propionic Acid]
The IC50 of the first is 79-fold higher: 1350 nM for the first, 17 nM for the second. The second is the more potent here.

`O=C(CCCOc1ccc(C[C@H](NC(=O)OCc2ccccc2)C(=O)O)cc1)NC1=NCCCN1` [Example 1, (2S)-2-Benzyloxycarbonylamino-3-(4-(3-(1,4,5,6-tetrahydropyrimidin-2-ylcarbamoyl)propyloxy)phenyl)propionic Acid] and `O=C(CCCOc1ccc(C[C@H](NC(=O)OCc2ccccc2)C(=O)O)cc1)NC1=NCCN1` [Example 6, (2S)-2-Benzyloxycarbonylamino-3-(4-(3-(4,5-dihydro-1H-imidazol-2-ylcarbamoyl)propyloxy)phenyl)propionic Acid] are within 1.5-fold of each other in IC50: 28 nM for the first, 32 nM for the second.
